From patent US6649745B2 (priority 2002, dated 2003) come the findings set out here.

The subject of assay [1] is immunecompromised mice. The assay is classed as in vivo. As to conditions: for Antibody titer % change compared to control / Antibody titer mean ± S.E.: titre on 5th day; for Antibody titer mean ± S.E.: n=12.
Assay [2] deals with immunecompromised mice. Format: in vivo. Conditions: for DTH mean ± S.E.: n=12.
Setting [3] is: 0.0006 mg/kg p.o., day 0-4, immunecompromised mice.
The mark [4] stands for this setting: 0.0125 mg/kg p.o., day 0-4, immunecompromised mice.
Setting [5] is: oral, dose levels 0.0062-0.0125 mg Kg^-1, immunecompromised experimental animals.
[6] abbreviates: 0.0006 mg/kg p.o., day 0-4, immunecompromised mice, foot thickness on 5th day.
Where [7] appears, read: 0.0125 mg/kg p.o., day 0-4, immunecompromised mice, foot thickness on 5th day.
The mark [8] stands for this setting: 2.5 mg/kg p.o., day 0-4, immunecompromised mice.
The mark [9] stands for this setting: 2.5 mg/kg p.o., day 0-4, immunecompromised mice, foot thickness on 5th day.
Where [10] appears, read: 250 mg/kg p.o., day 0-4, SRBC-sensitized mice.

Read-outs that look alike come from different tables or passages of the source. Marks after values point to notes of the source that are not given here.

For the compound “3-0-[α-L-rhamnopyranosyl-(1→2)-α-L-rhamnopyranosyl-(1→4)-0-β-D-glucopyranosyl]-25(S)-5β-spirostan-3β-ol [AR-Iv]”, in the assay on immunecompromised mice [1] (setting [3]), the “Antibody titer % change compared to control” value (“Antibody titer % change” below) is reported as 56** % and the “Antibody titer mean ± S.E.” value came to 5.60 ± 0.33. Besides, in the assay on immunecompromised mice [1] (setting [4]), the “Antibody titer % change” value is on record as 78*** % and the “Antibody titer mean ± S.E.” value came to 6.41 ± 0.16. Also, the “potentiation of antibody synthesis” value in the assay with immunecompromised mice [1] (setting [5]) is 55.55-69.44%. Further, in the assay on immunecompromised mice [2] (setting [6]), the “DTH % change compared to control” value is 78*** % and the “DTH mean ± S.E.” value worked out at 0.80 ± 0.14. Further, in the assay on immunecompromised mice [2] (setting [7]), the “DTH % change compared to control” value was 102*** % and the “DTH mean ± S.E.” value came to 0.91 ± 0.42. Besides, the “enhancement of cell-mediated immune response” value in the assay on immunecompromised mice [2] (setting [5]) is 77.77-102.22%.
Regarding `c1ccc([C@H]2CN3CCSC3=N2)cc1` [LEV, Levamisole, reference compound], in the assay with immunecompromised mice [1] (setting [8]), the “Antibody titer % change” value is 89*** % and the “Antibody titer mean ± S.E.” value worked out at 6.80 ± 0.30. In addition, in the assay on immunecompromised mice [2] (setting [9]), the “DTH % change compared to control” value was 140*** % and the “DTH mean ± S.E.” value was 1.08 ± 0.14.
Regarding Cyclodextrin [reference compound], in the assay on immunecompromised mice [1] (setting [10]), the “Antibody titer % change” value is recorded as 45* % and the “Antibody titer mean ± S.E.” value was 3.60 ± 0.33. In addition, the “DTH mean ± S.E.” value with immunecompromised mice [2] (250 mg/kg p.o., day 0-4, SRBC challenge in footpad on 4th day, foot thickness on 5th day) came to 0.45 ± 0.24. For the same compound, in the assay with immunecompromised mice [2] (250 mg/kg p.o., day 0-4, foot thickness on 5th day), the “DTH % change compared to control” value was 23* %.
